Measurements reported in patent publication US20220362174A1, “Use of R-enantiomer Beta2-agonists for prevent and treatment of pulmonary inflammation and inflammatory remodeling for reduced adverse effects” (priority 2019, published 2022).

Columns and labels:
Type in all cases: cell-based
[1] = system: LPS-induced RAW264.7 cells; assay: mRNA expression of TNF-α, IL-1β and MCP-1 by quantitative real-time PCR; conditions: ICI-118551-treated cells compared to the control group
Description: (§1) Macrophages were treated without or with (R)/(S)-salbutamol for 1 h prior to LPS stimulation and subsequently incubated for 12 h. […] The fluorescence of the oxidized product (2′,7′-dichlorofluorescein, DCF) was assessed using an LSM710 Laser Scanning Confocal Microscope (Carl Zeiss, Jena, Germany). The concentration of NO in the culture supernatant was measured by assaying the concentrations of nitrite (a stable NO breakdown product) using the Griess assay (Beyotime, Shanghai, China), according to the manufacturer's instructions. The intracellular NO level was detected using the NO-sensitive fluorescence probe DAF-FM DA (Sigma, St. Louis, Mo., USA) (24). Cells were labeled with DAF-FM DA (10 μM) at 37° C. for 30 min and were gently washed three times with PBS. Fluorescence was detected using a LSM710 Laser Scanning Confocal Microscope (Scale bars, 100 μm) (Carl Zeiss, Jena, Germany).
To examine the mRNA expression of TNF-α, IL-1β and MCP-1, quantitative real-time PCR was performed. Consistent with the cytokine expression study, the mRNA expression of TNF-α was increased by 2.26-fold in the LPS-induced group compared to the control group (FIG. 8D). The mRNA expression of IL-1β and MCP-1 increased by 12.74-fold (FIG. 8E) and 3.1-fold, respectively, in the LPS-induced group compared to the control group (FIG. 8F).

[2] = system: LPS-induced RAW264.7 cells; assay: Seahorse analysis of OCR and ECAR
Description: as §1
Macrophage activation elicited different metabolic profiles. LPS-induced macrophages adopted glycolytic metabolic profiles. This invention disclosed a β2 adrenergic receptor mediated Warburg metabolism (aerobic glycolysis) of in LPS treated macrophages. The OCR and ECAR were measured using an extracellular flux analyzer. […] ECAR is a measurement extracellular acidification rate, an indication of cellular glycolytic rate.

[3] = system: LPS-induced RAW264.7 cells; assay: M1/M2 macrophage polarization by flow cytometry; conditions: pretreated with (R)-salbutamol following incubation with ICI-118551, LPS
Description: as §1
Macrophages M1 (F4/80+/CD11c+/CD206−) and M2 (F4/80+/CD11c−/CD206+) polarization were analyzed using flow cytometry.

[4] = system: LPS-induced RAW264.7 cells; assay: NO production (DAF-FM DA probe, Griess assay); conditions: treatment with ICI-118551 in (R)-salbutamol/LPS cells
Description: as §1
(§2) In addition, the concentration of NO in the culture supernatant was measured by assaying the concentrations of nitrite (a stable NO breakdown product) using the Griess assay. […] To investigate (R)-salbutamol role on the level of iNOS, the mRNA and protein levels of iNOS were determined.

iNOS = iNOS mRNA and protein levels
Description: as §2

[5] = system: LPS-induced macrophages RAW264.7 cells; assay: Ratio of GSH/GSSG
From the text: The ratio of GSH to GSSG is a marker of oxidative stress.

## Cc1ccc(OCC(O)C(C)NC(C)C)c2c1CCC2 (centres unmarked) [ICI-118551, reference compound]
[1]
  mRNA expression of IL-1β, increase: 12.41 fold
  mRNA expression of MCP-1, increase: 3.36 fold
  mRNA expression of TNF-α, increase: 2.28 fold
[2]
  metabolism shift by (R)-salbutamol with ICI-118551 treatment: blocked
[3]
  percentage of M1 macrophages: 55.8%
[4]
  NO levels: increased NO levels
iNOS
  effects of (R)-salbutamol on iNOS when adding ICI-118551: blocked
[5]
  effect of (R)-salbutamol on GSH/GSSG with ICI-118551: blocked
